US20160067255A1, “METHODS OF TREATING OR PREVENTING HIV IN PATIENTS USING A COMBINATION OF TENOFOVIR ALAFENAMIDE AND DOLUTEGRAVIR” (priority 2014, published 2016)

Assay: Oral pharmacokinetics of TAF alone or in combination with dolutegravir in male beagle dogs (plasma, LC/MS)
Details: dog; for half-life: T1/2 (estimated terminal elimination half-life)
Procedure: TAF was dosed at 5 mg/kg (as free base) orally in solution to fasted male beagle dogs (N=6 animals, mean weight 10 kg). On Day 1, TAF was administered alone. On days 2, 3, 4 and 5, 3 mg/kg of Dolutegravir (DTG) was administered alone (as free acid). Both compounds were administered on Day 6. The plasma pharmacokinetic profiles of TAF and its nucleotide metabolite tenofovir (TFV) were determined by LC/MS in samples taken on Day 1 and Day 6 of dosing.
The oral dosing formulation for TAF was 0.1% Hydroxypropylmethylcellulose K100LV, 0.1% Polysorbate 20, 99.8% deionized water. For dolutegravir, the oral dosing formulation was 0.5% Hydroxypropylmethylcellulose LV 100 and 0.1% Tween 20 in deionized water.
The animals were fasted overnight prior to each dose administration and up to 4 hr after dosing. The blood samples were collected on days 1 and 6 predose and at the following time points following dosing: 0.25, 0.5, 1, 2, 4, 6, 8, 12 and 24 hour. The blood samples were collected into Vacutainer™ tubes containing Sodium Fluoride/Potassium Oxalate (BD Biosciences). The blood samples were centrifuged at 4° C. to separate plasma. Plasma samples were frozen and stored in −70° C. freezers.
Plasma was prepared by protein precipitation by adding acetonitrile to a final concentration of 70% in the presence of internal standard. Following filtration to remove precipitated protein, samples were evaporated, reconstituted with mobile phase A (0.2% formate in water) and analyzed using injections of 5 μl for analysis.

[1] = Day 6 (TAF + DTG) versus Day 1 (TAF alone)
[2] = male, beagle, in vivo, po, 5 mg/kg, TAF in plasma, Day 1, TAF 5 mg/kg oral alone, fasted male beagle dogs, mean n=6
[3] = male, beagle, in vivo, po, 5 mg/kg, TAF in plasma, Day 6, TAF 5 mg/kg oral co-administered with DTG 3 mg/kg after 4 daily doses of DTG, male beagle dogs, mean n=6
[4] = male, beagle, in vivo, po, 5 mg/kg

Row | SMILES | increase of maximal concentrations (Cmax) of TAF upon coadministration with DTG [1] | increase of oral exposure of TAF upon coadministration with DTG [1] | AUC(0-t) (male, beagle, in vivo, po, 5 mg/kg, AUC0-24hr, TAF in plasma, Day 1, TAF 5 mg/kg oral alone, fasted male beagle dogs, mean n=6) [µM·h] | AUC(0-t) (male, beagle, in vivo, po, 5 mg/kg, AUC0-24hr, TAF in plasma, Day 6, TAF 5 mg/kg oral co-administered with DTG 3 mg/kg after 4 daily doses of DTG, male beagle dogs, mean n=6) [µM·h] | Cmax [2] [nM] | Cmax [3] [nM] | half-life [2] [min] | Tmax [2] [min] | Tmax [3] [min] | TFV levels in Day 1 pre-dose plasma samples (male, beagle, in vivo) [nM] | AUC(0-t) [4] [µM·h] | AUC(0-inf) (male, beagle, in vivo, po, 5 mg/kg, AUC0-inf) [µM·h] | Cmax [4] [nM] | half-life [4] [min] | Tmax [4] [min]
1 | CC(C)OC(=O)[C@H](C)N[P@](=O)(CO[C@H](C)Cn1cnc2c(N)ncnc21)Oc1ccccc1 [TAF, 9-[(R)-2-[[(S)-[[(S)-1-(isopropoxycarbonyl)ethyl]amino]phenoxyphosphinyl]-methoxy]propyl]adenine] | approximately 2 fold | approximately 2 fold | 0.174 | 0.345 | 412 | 818 | 11.4 | 17.4 | 15 |  |  |  |  |  | 
2 | C[C@H](Cn1cnc2c(N)ncnc21)OCP(=O)(O)O [TFV, Tenofovir] |  |  |  |  |  |  |  |  |  | < 10 | 1.6 | 2.92 | 253 | 1500 | 75
